Measurements: ChEMBL document CHEMBL3611992, “Synthesis and Structure-Activity Relationships of Quaternary Coptisine Derivatives as Potential Anti-ulcerative Colitis Agents” (J Med Chem, 2015)
Activity calls are given as the source filed them. The calls are words filed in the database; no cut-off is given here.

How the values were obtained:
[1] = molecular target: T1, X-box-binding protein 1 (Homo sapiens) (UniProt P17861); assay: Transactivation of XBP1 (unknown origin) transfected in rat IEC-6 cells at 10 uM after 48 hrs by dual luciferase reporter gene assay; type: cell-based
T1 sequence (whole entry): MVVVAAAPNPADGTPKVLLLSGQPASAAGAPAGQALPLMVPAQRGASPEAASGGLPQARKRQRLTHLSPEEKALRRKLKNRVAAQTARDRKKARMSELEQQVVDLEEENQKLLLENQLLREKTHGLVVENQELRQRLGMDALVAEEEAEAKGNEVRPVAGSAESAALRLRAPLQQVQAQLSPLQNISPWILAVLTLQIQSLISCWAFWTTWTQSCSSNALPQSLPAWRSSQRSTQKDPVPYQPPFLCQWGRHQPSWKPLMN

Mus musculus [2] = organism: Mus musculus; assay: Anti-ulcerative colitis activity in DSS-induced acute C57Bl/6J mouse ulcerative colitis model; type: functional, organism-based
Mus musculus [3] = assay: Toxicity in DSS-induced acute C57Bl/6J mouse ulcerative colitis model assessed as change in body weight at 200 mg/kg, po qd (reference value: -15.3%); type: organism-based; details: in vivo
[4] = molecular target: T1, X-box-binding protein 1 (Homo sapiens); assay: Transactivation of XBP1 (unknown origin) transfected in rat IEC-6 cells at 10 uM after 48 hrs by dual luciferase reporter gene assay relative to con 2; type: cell-based
Mus musculus [5] = assay: Anti-ulcerative colitis activity in DSS-induced acute C57Bl/6J mouse ulcerative colitis model assessed as inhibition rate of disease activity index at 200 mg/kg, po qd measured on day 8 relative to control; type: functional; details: 192 h
Mus musculus [6] = assay: Anti-ulcerative colitis activity in po dosed DSS-induced acute C57Bl/6J mouse ulcerative colitis model assessed as inhibition rate of disease activity index administered as qd measured on day 8; type: functional, organism-based
Mus musculus [7] = assay: Anti-ulcerative colitis activity in DSS-induced acute C57Bl/6J mouse ulcerative colitis model assessed as inhibition rate of disease activity index at 50 mg/kg, po qd measured on day 8 relative to control; type: functional; details: 192 h
Mus musculus [8] = assay: Toxicity in DSS-induced acute C57Bl/6J mouse ulcerative colitis model assessed as change in body weight at 100 mg/kg, po qd (reference value: -15.3%); type: organism-based; details: in vivo
Mus musculus [9] = assay: Anti-ulcerative colitis activity in DSS-induced acute C57Bl/6J mouse ulcerative colitis model assessed as improvement in colon contracture at 100 mg/kg, po qd measured on day 8 (reference value: 41.8%); type: functional
Mus musculus [10] = assay: Anti-ulcerative colitis activity in DSS-induced acute C57Bl/6J mouse ulcerative colitis model assessed as inhibition rate of disease activity index at 100 mg/kg, po qd measured on day 8 relative to control; type: functional; details: 192 h
Mus musculus [11] = assay: Anti-ulcerative colitis activity in DSS-induced acute C57Bl/6J mouse ulcerative colitis model assessed as improvement in colon contracture at 50 mg/kg, po qd measured on day 8 (reference value: 41.8%); type: functional
Mus musculus [12] = assay: Toxicity in DSS-induced acute C57Bl/6J mouse ulcerative colitis model assessed as change in body weight at 50 mg/kg, po qd (reference value: -15.3%); type: organism-based; details: in vivo
Mus musculus [13] = assay: Anti-ulcerative colitis activity in DSS-induced acute C57Bl/6J mouse ulcerative colitis model assessed as improvement in colon contracture at 200 mg/kg, po qd measured on day 8 (reference value: 41.8%); type: functional
[14] = Cytotoxicity against rat IEC-6 cells assessed as cell survival at 10 uM after 24 to 72 hrs by MTT assay; type: cell-based; details: iec-6, 10 µM
Mus musculus [15] = assay: Anti-ulcerative colitis activity in DSS-induced acute C57Bl/6J mouse ulcerative colitis model assessed as improvement in number of visible colitis lesions at 300 mg/kg, po qd measured on day 8; type: functional, organism-based
Mus musculus [16] = assay: Anti-ulcerative colitis activity in DSS-induced acute C57Bl/6J mouse ulcerative colitis model assessed as improvement in colon contracture at 300 mg/kg, po qd measured on day 8 (reference value: 41.8%); type: functional
Mus musculus [17] = assay: Anti-ulcerative colitis activity in DSS-induced acute C57Bl/6J mouse ulcerative colitis model assessed as inhibition rate of disease activity index at 300 mg/kg, po qd measured on day 8 relative to control; type: functional; details: 192 h
Mus musculus [18] = assay: Anti-ulcerative colitis activity in DSS-induced acute C57Bl/6J mouse ulcerative colitis model assessed as recovery of each muscle layer structure at 300 mg/kg, po qd measured on day 8; type: functional, organism-based
Mus musculus [19] = assay: Toxicity in DSS-induced acute C57Bl/6J mouse ulcerative colitis model assessed as change in body weight at 300 mg/kg, po qd (reference value: -15.3%); type: organism-based; details: in vivo
Mus musculus [20] = assay: Anti-ulcerative colitis activity in DSS-induced acute C57Bl/6J mouse ulcerative colitis model assessed as colon macroscopic damage index at 300 mg/kg, po qd measured on day 8 (reference value: 5.69 +/- 1.12); type: functional
Mus musculus [21] = organism: Mus musculus; assay: Toxicity in C57Bl/6J mouse; type: organism-based; details: in vivo
Mus musculus [22] = assay: Anti-ulcerative colitis activity in DSS-induced acute C57Bl/6J mouse ulcerative colitis model assessed as colon macroscopic damage index at 200 mg/kg, po qd measured on day 8 (reference value: 5.69 +/- 1.12); type: functional
Mus musculus [23] = assay: Anti-ulcerative colitis activity in po dosed DSS-induced acute C57Bl/6J mouse ulcerative colitis model assessed as decrease in colon macroscopic damage index administered as qd measured on day 8; type: functional, organism-based
Mus musculus [24] = assay: Anti-ulcerative colitis activity in DSS-induced acute C57Bl/6J mouse ulcerative colitis model assessed as restoration of polarity arrangement of IEC cells to its normal physiological state at 200 mg/kg, po qd measured on day 8; type: functional, organism-based
Mus musculus [25] = assay: Anti-ulcerative colitis activity in DSS-induced acute C57Bl/6J mouse ulcerative colitis model assessed as decrease in inflammatory lesions in colon tissue at 50 to 100 mg/kg, po qd measured on day 8; type: functional, organism-based
Mus musculus [26] = assay: Anti-ulcerative colitis activity in DSS-induced acute C57Bl/6J mouse ulcerative colitis model assessed as colon macroscopic damage index at 50 mg/kg, po qd measured on day 8 (reference value: 5.69 +/- 1.12); type: functional
Mus musculus [27] = assay: Anti-ulcerative colitis activity in DSS-induced acute C57Bl/6J mouse ulcerative colitis model assessed as appearance of regularly arranged IEC cells at 200 mg/kg, po qd measured on day 8; type: functional, organism-based
Mus musculus [28] = assay: Anti-ulcerative colitis activity in DSS-induced acute C57Bl/6J mouse ulcerative colitis model assessed as colon macroscopic damage index at 100 mg/kg, po qd measured on day 8 (reference value: 5.69 +/- 1.12); type: functional
Mus musculus [29] = organism: Mus musculus; assay: Potency index, ratio of compound activity to SASP activity for inhibition rate of disease activity index in DSS-induced acute C57Bl/6J mouse ulcerative colitis model; type: functional
Mus musculus [30] = assay: Anti-ulcerative colitis activity in DSS-induced acute C57Bl/6J mouse ulcerative colitis model assessed as improvement in lesions of inflammatory bowel disease at 200 mg/kg, po qd measured on day 8; type: functional, organism-based

| Activity [1] | Compound | Activity (Mus musculus [2]) | further results |
| --- | --- | --- | --- |
| inactive | C=C(C(=O)C(C)C)c1c2c3c(ccc2c(C)c2[n+]1CCc1cc4c(cc1-2)OCO4)OCO3 |  |  |
| Active | Cc1c2[n+](cc3c4c(ccc13)OCO4)CCc1cc3c(cc1-2)OCO3 | inactive |  |
| inactive | C=C(C(=O)CCC)c1c2c3c(ccc2c(C)c2[n+]1CCc1cc4c(cc1-2)OCO4)OCO3 |  |  |
| inactive | C=C(C(=O)c1ccc(CC(C)C)cc1)c1c2c3c(ccc2c(C)c2[n+]1CCc1cc4c(cc1-2)OCO4)OCO3 |  |  |
| Active | Fc1cccc(Cc2c3[n+](cc4c5c(ccc24)OCO5)CCc2cc4c(cc2-3)OCO4)c1 | inactive |  |
| inactive | C=C(C(=O)C1CC1)c1c2c3c(ccc2c(C)c2[n+]1CCc1cc4c(cc1-2)OCO4)OCO3 |  |  |
| Active | Fc1ccccc1Cc1c2[n+](cc3c4c(ccc13)OCO4)CCc1cc3c(cc1-2)OCO3 | inactive |  |
| Active | Cc1ccc(CC2=C3c4cc5c(cc4CCN3Cc3c2ccc2c3OCO2)OCO5)cc1 |  |  |
| inactive | C=C(C(=O)C(C)(C)C)c1c2c3c(ccc2c(C)c2[n+]1CCc1cc4c(cc1-2)OCO4)OCO3 |  |  |
| Active | COc1ccc(CC2=C3c4cc5c(cc4CCN3Cc3c2ccc2c3OCO2)OCO5)cc1 |  |  |
| Active | Fc1ccc(Cc2c3[n+](cc4c5c(ccc24)OCO5)CCc2cc4c(cc2-3)OCO4)c(F)c1 | inactive |  |
| inactive | C=C(C(=O)CCCC)c1c2c3c(ccc2c(C)c2[n+]1CCc1cc4c(cc1-2)OCO4)OCO3 |  |  |
| Active | Fc1ccc(Cc2c3[n+](cc4c5c(ccc24)OCO5)CCc2cc4c(cc2-3)OCO4)cc1 | inactive |  |
| Active | N#Cc1ccc(Cc2c3[n+](cc4c5c(ccc24)OCO5)CCc2cc4c(cc2-3)OCO4)cc1 | inactive |  |
| inactive | C=C(C(=O)c1ccc(OC)cc1)c1c2c3c(ccc2c(C)c2[n+]1CCc1cc4c(cc1-2)OCO4)OCO3 |  |  |
| Active | COc1ccc(Cc2c3[n+](cc4c5c(ccc24)OCO5)CCc2cc4c(cc2-3)OCO4)cc1 | inactive |  |

Continued, compound first:

| Compound | Activity [1] | Activity (Mus musculus [2]) | further results |
| --- | --- | --- | --- |
| Fc1ccc(CC2=C3c4cc5c(cc4CCN3Cc3c2ccc2c3OCO2)OCO5)cc1 | Active |  |  |
| CC(=O)CC1c2c(ccc3c2OCO3)C=C2c3cc4c(cc3CCN21)OCO4 (racemic) | Active |  | Activity (Mus musculus [3]): 3.33%; fold change (FC) [4]: 2.06; inhibition in vivo at 200 mg/kg (Mus musculus [5]): 63.8%; inhibition (Mus musculus [6]): Dose-dependent effect; inhibition in vivo at 50 mg/kg (Mus musculus [7]): 36.4%; Activity (Mus musculus [8]): 3.26%; Activity (Mus musculus [9]): 28.8%; inhibition in vivo at 100 mg/kg (Mus musculus [10]): 60.3%; Activity (Mus musculus [11]): 38.3%; Activity (Mus musculus [12]): -12.9%; Activity (Mus musculus [13]): 20.4% |
| C=C(C(C)=O)c1c2c3c(ccc2c(C)c2[n+]1CCc1cc4c(cc1-2)OCO4)OCO3 |  | inactive |  |
| C1=CC2CC=CCN2CC1 (stereo not given) | Active |  |  |
| N#Cc1ccc(CC2=C3c4cc5c(cc4CCN3Cc3c2ccc2c3OCO2)OCO5)cc1 | Active |  |  |
| Fc1ccccc1CC1=C2c3cc4c(cc3CCN2Cc2c1ccc1c2OCO1)OCO4 | Active |  |  |
| Fc1ccc(CC2=C3c4cc5c(cc4CCN3Cc3c2ccc2c3OCO2)OCO5)c(F)c1 | Active |  |  |
| Cc1ccc(Cc2c3[n+](cc4c5c(ccc24)OCO5)CCc2cc4c(cc2-3)OCO4)cc1.[Cl-] |  |  | Activity [14]: Toxic |
| Fc1cccc(CC2=C3c4cc5c(cc4CCN3Cc3c2ccc2c3OCO2)OCO5)c1 | Active |  |  |
| FC(F)(F)c1cccc(CC2=C3c4cc5c(cc4CCN3Cc3c2ccc2c3OCO2)OCO5)c1 | Active |  |  |
| O=C(O)c1cc(/N=N/c2ccc(S(=O)(=O)Nc3ccccn3)cc2)ccc1O [SULFASALAZINE] |  |  | Activity (Mus musculus [15]): Active; Activity (Mus musculus [16]): 30%; inhibition in vivo at 300 mg/kg (Mus musculus [17]): 30.6%; Activity (Mus musculus [18]): Active; Activity (Mus musculus [19]): -8.42%; Activity_index (Mus musculus [20]): 3.98 |
| N#CC1c2c(ccc3c2OCO3)C=C2c3cc4c(cc3CCN21)OCO4 (racemic) | Active |  | Activity (Mus musculus [21]): Toxic |
| c1cc2c(c3c1CC1c4cc5c(cc4CCN1C3)OCO5)OCO2 (stereo not given) |  | inactive |  |
| O=c1c2c3c(ccc2cc2n1CCc1cc4c(cc1-2)OCO4)OCO3 | Active | inactive |  |
| FC(F)(F)c1cccc(Cc2c3[n+](cc4c5c(ccc24)OCO5)CCc2cc4c(cc2-3)OCO4)c1.[Cl-] |  |  | Activity [14]: Toxic |
| C1=C2c3cc4c(cc3CCN2Cc2c1ccc1c2OCO1)OCO4 | Active |  | Activity_index (Mus musculus [22]): 2.16; Activity (Mus musculus [3]): 6.8%; Activity (Mus musculus [23]): Dose-dependent effect; Activity (Mus musculus [24]): Active; fold change (FC) [4]: 2.96; inhibition in vivo at 200 mg/kg (Mus musculus [5]): 74%; inhibition (Mus musculus [6]): Dose-dependent effect; Activity (Mus musculus [25]): inactive; Activity_index (Mus musculus [26]): 3.52; inhibition in vivo at 50 mg/kg (Mus musculus [7]): 48%; Activity (Mus musculus [27]): Active; Activity (Mus musculus [8]): 0.4%; Activity_index (Mus musculus [28]): 2.86; Ratio (Mus musculus [29]): <=2; Activity (Mus musculus [9]): 20.8%; Activity (Mus musculus [30]): Active; inhibition in vivo at 100 mg/kg (Mus musculus [10]): 55.9%; Activity (Mus musculus [11]): 24.6%; Activity (Mus musculus [12]): -7%; Activity (Mus musculus [13]): 18.7% |
| C=C(C(=O)CC)c1c2c3c(ccc2c(C)c2[n+]1CCc1cc4c(cc1-2)OCO4)OCO3 |  | inactive |  |
| CC1=C2c3cc4c(cc3CCN2Cc2c1ccc1c2OCO1)OCO4 | Active | inactive |  |
